Data on 23 compounds can be found in patent publication US4394383A, “N-Alkoxysulfenylcarbamates useful as insecticides” (priority 1981, dated 1983).

Structures are written as SMILES. Where two headings read alike, the source gives them in different places. Where only a bound is given, the exact number is not on record here.

What all share (type): in vivo
For data set [1], the system named is house flies, Musca domestica. As to the kind of experiment: Insecticidal activity against house flies, topical application on the notum, 24 h mortality. The conditions noted are these: for LD50: Musca domestica. The procedure: Representative compounds of the N-alkoxysulfenylcarbamate esters of the invention were tested for insecticidal activity against house flies, Musca domestica. Stock 1% concentrated solutions of each of the test compounds were made in acetone, and such solutions diluted with acetone to a concentration of 0.001-0.1%. House flies were treated topically on the notum by 1 μl of each of the diluted acetone solutions and percent mortality was counted 24 hours after application. Insects were held at constant temperature of 60° F.
(§1) The term "LD50 " represents the dose needed to kill 50% of the test animals. In interpreting the values in the table above, the lower the value for LD50 for house flies, the greater the insecticidal potency or toxicity of that particular compound. On the other hand, the higher the value of LD50 for mice, the lower the mammalian toxicity or the greater is the mammalian safety of such compound.

Data set [2] is described as follows: Mammalian toxicity, oral, Swiss white mice. The conditions noted are these: mouse, in vivo, po. The procedure:
(§2) Mammalian toxicity was determined against Swiss white mice. The test compound was applied orally using corn oil as the carrier. Results are given as LD50 in mg of compound per kg body weight.
as §1

Data set [3] deals with Swiss white mice. As to the kind of experiment: Mammalian toxicity, oral, Swiss white mice. As to conditions: mice / mammals; comparison with parent carbamate or purified compound. The procedure: as §2, §1
[4] abbreviates: Table 2, polysulfide derivatives, oral in corn oil, read-out: Mice Toxicity LD50.
[5] abbreviates: Table 1, oral in corn oil, samples contained polysulfide derivative in the amounts indicated, read-out: Mice LD50.

Turning to `CCCCCCOSN(C)C(=O)Oc1cccc2c1OC(C)(C)C2` [CH2 (CH2)4 CH3, n = 1, 2,3-dihydro-2,2-dimethyl-7-benzofuranyl(hexyloxysulfenyl)(methyl)carbamate], the “House flies LD50” value in data set [1] (Table 2, polysulfide derivatives) is 9.3 µg/g. Further, the LD50 in data set [2] (setting [4]) came out at 37 mg/kg.
Regarding `CCCCCCOSSN(C)C(=O)Oc1cccc2c1OC(C)(C)C2` [CH2 (CH2)4 CH3, n = 2, disulfide derivative of 2,3-dihydro-2,2-dimethyl-7-benzofuranyl(hexyloxysulfenyl)(methyl)carbamate], the LD50 was determined as 13 mg/kg in data set [1] (read-out: House flies LD50) and 72 mg/kg in data set [2] (setting [4]).
Taken in the same sequence, the figures for `COSSN(C)C(=O)Oc1cccc2c1OC(C)(C)C2` [CH3, n = 2, disulfide derivative of 2,3-dihydro-2,2-dimethyl-7-benzofuranyl(methoxysulfenyl)(methyl)carbamate] were 20.5 mg/kg and 48 mg/kg.
On to `CNC(=O)Oc1cccc2c1OC(C)(C)C2` [Carbofuran, 2,3-dihydro-2,2-dimethyl-7-benzofuranyl methylcarbamate, reference compound], for which the 50% lethal dose (LD50) was 11 mg/kg in data set [1] (read-out: House flies LD50), ~11 mg/kg in data set [1] (read-out: LD50 value for house flies), 11 to 19 mg/kg in data set [2] (setting [4]) and 11 mg/kg in data set [2] (read-out: LD50 for mice).
For the compound `COSN(C)C(=O)Oc1cccc2c1OC(C)(C)C2` [Example 1, 2,3-dihydro-2,2-dimethyl-7-benzofuranyl(methoxysulfenyl)(methyl)carbamate], the LD50 is 15.5 mg/kg in data set [1] (read-out: House flies LD50), 43 mg/kg in data set [2] (setting [5]) and 43 mg/kg in data set [2] (setting [4]).
`CCOSN(C)C(=O)Oc1cccc2c1OC(C)(C)C2` [Example 2, 2,3-dihydro-2,2-dimethyl-7-benzofuranyl(ethoxysulfenyl)(methyl)carbamate]: the figures for the LD50 in data set [1] (read-out: House flies LD50) and in data set [2] (setting [5]) were 15.8 mg/kg and 46 mg/kg, respectively.
In the same order, the values of `CC(C)OSN(C)C(=O)Oc1cccc2c1OC(C)(C)C2` [Example 3, 2,3-dihydro-2,2-dimethyl-7-benzofuranyl(isopropoxysulfenyl)(methyl)carbamate] are 31 mg/kg and 55 to 70 mg/kg.
Taken in the same sequence, the figures for `CCCCCCOSN(C)C(=O)Oc1cccc2c1OC(C)(C)C2` [Example 4, 2,3-dihydro-2,2-dimethyl-7-benzofuranyl(hexyloxysulfenyl)(methyl)carbamate] were 9.3 mg/kg and 88 mg/kg.
In the same order, the values of `CN(SOC1CCCCC1)C(=O)Oc1cccc2c1OC(C)(C)C2` [Example 5, 2,3-dihydro-2,2-dimethyl-7-benzofuranyl(cyclohexyloxysulfenyl)(methyl)carbamate] are 21.5 mg/kg and 69 mg/kg.
Consider `CN(SOCc1ccccc1)C(=O)Oc1cccc2c1OC(C)(C)C2` [Example 6, 2,3-dihydro-2,2-dimethyl-7-benzofuranyl(benzyloxysulfenyl)(methyl)carbamate], for which the median lethal dose (LD50) in data set [1] (read-out: House flies LD50) was 7.5 mg/kg; in data set [2] (setting [5]) it was 59 mg/kg.
As for `CCCCCCCCCCCCOSN(C)C(=O)Oc1cccc2c1OC(C)(C)C2` [Example 7, 2,3-dihydro-2,2-dimethyl-7-benzofuranyl(dodecyloxysulfenyl)(methyl)carbamate], the median lethal dose (LD50) in data set [1] (read-out: House flies LD50) was 21 mg/kg; in data set [2] (setting [5]), 340 mg/kg.
In the same order, the values of `CCCCOSN(C)C(=O)Oc1ccccc1OC(C)C` [Example 8, 2-isopropoxyphenyl(butoxysulfenyl)(methyl)] are 46 mg/kg and > 1000 mg/kg.
Consider `CC(C)Oc1ccccc1OC(=O)N(C)SOCc1ccccc1` [Example 9, 2-isopropoxyphenyl(benzyloxysulfenyl)(methyl)carbamate], for which the median lethal dose (LD50) is 30 mg/kg in data set [1] (read-out: House flies LD50), > 1000 mg/kg in data set [2] (setting [5]) and > 1000 mg/kg in data set [2] (read-out: LD50 for mice). Moreover, the “mammalian toxicity / safety (in words)” value in data set [3] was “much safer to mammals”.
In the case of `CCCCOSN(C)C(=O)Oc1cccc(C(C)C)c1` [Example 10, 3-isopropylphenyl(butoxysulfenyl)(methyl)carbamate], the LD50 is 120 mg/kg in data set [1] (read-out: House flies LD50) and 130 mg/kg in data set [2] (setting [5]).
Consider `CC(C)c1cccc(OC(=O)N(C)SOCc2ccccc2)c1` [Example 11, 3-isopropylphenyl(benzyloxysulfenyl)(methyl)carbamate], for which the LD50 was found to be 175 mg/kg in data set [1] (read-out: House flies LD50) and 210 mg/kg in data set [2] (setting [5]).
Taken in the same sequence, the figures for `CCC(CC)OSN(C)C(=O)Oc1cccc2c1OC(C)(C)C2` [Example 12, 2,3-Dihydro-2,2-dimethyl-7-benzofuranyl (1-ethylpropoxysulfeny)(methyl)carbamate] were 21 mg/kg and 63 mg/kg.
In the same order, the values of `CN(SOC(C)(C)C)C(=O)Oc1cccc2c1OC(C)(C)C2` [Example 13, 2,3-Dihydro-2,2-dimethyl-7-benzofuranyl (tert-butoxysulfenyl)(methyl)carbamate] are 20 to 30 mg/kg and 75 mg/kg.
On to `CCCCCCCCOSN(C)C(=O)Oc1cccc2c1OC(C)(C)C2` [Example 14, 2,3-Dihydro-2,2-dimethyl-7-benzofuranyl (methyl)-(octyloxysulfenyl)carbamate], for which the LD50 in data set [1] (read-out: House flies LD50) worked out at 13 mg/kg; in data set [2] (setting [5]) it was 100 mg/kg.
Taken in the same sequence, the figures for `CCCCCCCCCCOSN(C)C(=O)Oc1cccc2c1OC(C)(C)C2` [Example 15, 2,3-Dihydro-2,2-dimethyl-7-benzofuranyl (decyloxysulfenyl)(methyl)carbamate] were 7.3 mg/kg and 135 mg/kg.
In the same order, the values of `COc1ccc(COSN(C)C(=O)Oc2cccc3c2OC(C)(C)C3)cc1` [Example 16, 2,3-Dihydro-2,2-dimethyl-7-benzofuranyl (P--methoxybenzyloxysulfenyl)(methyl)carbamate] are 13.8 mg/kg and 108 mg/kg.
With `CN(SOCc1ccc(C(C)(C)C)cc1)C(=O)Oc1cccc2c1OC(C)(C)C2` [Example 17, 2,3-Dihydro-2,2-dimethyl-7-benzofuranyl (P--tert-butylbenzyloxysulfenyl)(methyl)carbamate], the LD50 in data set [1] (read-out: House flies LD50) was determined as 15.5 mg/kg; in data set [2] (setting [5]) it was 98 mg/kg.
Turning to `CCCCCCCCCCCCCCCCCCOSN(C)C(=O)Oc1cccc2c1OC(C)(C)C2` [Example 18, 2,3-Dihydro-2,2-dimethyl-7-benzofuranyl (methyl)(octadecyloxysulfenyl)carbamate], the values for the LD50 in data set [1] (read-out: House flies LD50) and in data set [2] (setting [5]) were 75 mg/kg and ≥ 1000 mg/kg, respectively.
Turning to `CNC(=O)Oc1ccccc1OC(C)C` [propoxur, 2-isopropoxyphenyl methylcarbamate, reference compound], the LD50 in data set [2] (read-out: LD50 for mice) was found to be 62 mg/kg.

The LD50 is the dose at which mortality reaches 50%.
